Where “and” joins values, the source holds several entries; their conditions need not be identical. Identical values can stand only once.

A word on the melting point: it is the temperature of the solid-liquid transition.

Data set [1] deals with human microvascular endothelial (HMVE) cells. The note with it: after 96 h of treatment, cited from earlier work; for inhibition (%) at 0.5 μM: relative to vehicle alone control; for IC50: highest concentration evaluated 0.5 μM, read-out: IC50 (concentration inhibiting proliferation by 50%).
Data set [2] relates to Human colon adenocarcinoma LoVo. As to the kind of experiment: Cytotoxicity test (sulphorodamine B), LoVo. In kind it is cell-based. The note with it: 24 h incubation, survival 48 h after removal, read-out: IC50 ± SD. The source says: (§1) Different cell lines deriving from solid tumors were also used. • 1. Human prostate carcinoma PC3 and DU145. These cell lines were maintained in RPMI 1640 medium containing 10% FCS, 1% sodium pyruvate and 1% glutamine; • 2. Human colon adenocarcinoma LoVo. This cell line was maintained in HAM's F-12 medium, containing 10% FCS and 1% glutamine. • 3. Human ovarian carcinoma such as A2780 and A2780/Dx, sensitive and resistant to drugs, respectively (doxorubicin, taxol, etoposide, vincristine); IGROV-1 and IGROV-1/Pt, sensitive and resistant to platinum-based chemotherapy, respectively, were maintained in RPMI 1640 medium containing 10% FCS, 1% sodium pyruvate and 1% glutamine; • 4. Human melanoma MeWo and MeS 2.21, glioblastoma GBM, no small cell lung carcinomas A431, NCI—H460, osteosarcomas SAOS and U2OS were maintained in RPMI 1640 medium containing 10% FCS, 1% sodium pyruvate and 1% glutamine.
(§2) The cytotoxicity tests were carried out using NB4 or HL-60 cells in suspension (10000/well). The cells were seeded in a volume of 250 μl in 96 well plates and incubated for 24 hours at 37° C. […] The optical density was measured using a Multiskan spectrophotometer at 540 nm. […]
(§3) Cell survival was determined by incubation with ST1926 for 24 hours, 48 hours after the removal of the compound. […]

Data set [3] relates to chicken chorioallantoic membrane vessels, bFGF induced. As to the kind of experiment: Angiostatic activity in chicken chorioallantoic membrane (CAM) model. Type of data set: in vivo. The settings on record: for 12th day (72 hours), number of vessels per sponge / Δvessels: mean ± SE. The text has this: The chicken chorioallantoic membrane is a very vascularised membrane in which the vessels make their appearance at the 4th day of development, develop an arteriovenal system by the 8th day of development, and actively proliferate until the 11th day.
The aim of the study was to follow vasal development in the CAM under basal conditions and in the presence of an inducer bFGF (basic Fibroblast Growth Factor) of vasoproliferation. This study used chicken embryonal eggs at the initial stage of their development. On the 3rd day of development an operation to open the shells was performed to make the vessels of the CAM visible. The treatment was administered on the 9th day of development by applying a fragment of sterile gelatine (GELFOAM Pharmacia-Upjohn) about 1 mm^3, to the CAM surface, onto which was administered the bFGF (50 ng/embryo) or the products in question, for 3 consecutive days.
The evaluation of the effect of the molecule on vasoproliferation was obtained by a comparison of the vessels at the time of zero treatment with these of later times (12th day).

In data set [4] the test system is Human prostate carcinoma PC3. As to the kind of experiment: Cytotoxicity test (sulphorodamine B), PC3. Type of data set: cell-based. The note with it: 24 h incubation, survival 48 h after removal, read-out: IC50 ± SD.
Text: as §1, §2, §3

The next data set concerns NB4 cells. Kind of data set: Pro-differentiating effect on NB4 cells (NBT). In kind it is cell-based. The settings on record: Homo sapiens, NB-4, 72 h, NB4, three days, read-out: AC50 (activating concentration for 50% cellular differentiation) ± SD. The protocol:
NB4 cells were plated at a density of 150000 cells/ml in RPMI 1640 medium containing 10% foetal serum. The cells were then treated with ST1879 or ST1898 at decreasing concentrations starting from 0.4 μM to 0.01 μM and placed in an incubator for three days without any change of the media. To measure the differentiating effect 500000 cells from each sample were collected, centrifuged and resuspended in 1 ml of RPMI 1640 medium containing 10% serum, 1 mg/ml nitroblue tetrazolium (NBT) and 100 ng of PMA (phorbol myristyl acetate). The cells, resuspended as above, were incubated at 37° C. for 60 minutes. At the conclusion of incubation the cells were centrifuged and the precipitate resuspended in 1 ml of PBS containing 10% Triton ×100. The samples were sonicated until lysed and then read by spectrophotometer at a wavelength of 540 nm. Samples containing differentiated cells turn a purplish colour whilst the control samples and/or these with non differentiated cells remain white or much less intensely coloured. The pro-differentiating action of ST1879 or of ST1898 has been evaluated in terms of AC50 (activating concentration for 50% cellular differentiation) as reported below.

Data set [5] concerns NB4 acute promyelocytic leukaemia cell line. As to the kind of experiment: Cytotoxicity test (sulphorodamine B), NB4. Type of data set: cell-based, human. The note with it: Homo sapiens, 24 h incubation, survival 48 h after removal, read-out: IC50 ± SD.
Text: To carry out the cytotoxicity tests, two acute promyelocytic leukaemia (APL) cell lines were used. • 1. Cell line NB4, carrying the chromosomal translocation t(15; 17) which generates the fusion protein PML/RARα. This cell line is extremely sensitive to the differentiating action of pharmaceutical doses of ATRA (10^−7-10^−6 M); • 2. Cell line HL60, which responds to ATRA less sensitively with respect to cell line NB4.
These cell lines were maintained in RPMI 1640 containing 10% foetal calf serum (FCS) and 1% glutamine.
The cytotoxicity tests were carried out using NB4 or HL-60 cells in suspension (10000/well). The cells were seeded in a volume of 250 μl in 96 well plates and incubated for 24 hours at 37° C. The following day, test compound ST 1926 [(2E)-3-[3′-(1-Adamantyl)-4′-hydroxy[1,1′-biphenyl]-4-yl]-2-propenoate/ic acid] was added at increasing concentrations, and the cells were incubated for a further 24 hours at 37° C. in a humidified atmosphere containing 5% CO2. On the 3rd day, the medium was removed by centrifuging the plate at 1600×g for 10 min and the supernatant decanted. 250 μl of PBS were added; then the plates were centrifuged again at 1600×g for 10 minutes and the supernatant decanted. 200 μl/well of RPMI 1640 medium containing 10% FCS were added and the plates were incubated at 37° C. for a further 48 hours. On the 5th day, the plates were again centrifuged at 1600×g for 10 minutes, and the medium was removed by upturning the plates, 200 μl of PBS and 50 μl of cold, 80% TCA were added. The plates were then left to incubate on ice for at least 1 hour. The TCA was removed by upturning; the plates were washed three times by immersion in distilled water and dried first on paper, then with a jet of hot air. To all wells were added 200 μl of 0.4% sulphorodamine B in 1% acetic acid. The plates were incubated at room temperature for a further 30 minutes. […] The optical density was measured using a Multiskan spectrophotometer at 540 nm.
as §3

The test system of data set [6] is human no small cell lung carcinoma NCI-H460. Kind of data set: Antitumoral activity in human no small cell lung carcinoma model NCI-H460. The settings on record: NCI-H460, 15 mg/kg ip, q7dx3. Type of data set: in vivo. The protocol:
The ST1926 solution was prepared immediately before use and solubilised in cremophor:ethanol 1:1 and subsequently diluted 1:4 in buffered saline solution. The animal treatments were administered in a volume of 10 ml/kg. […] Measurements of tumor dimensions were performed using a digital calliper (Vernier Caliper) twice weekly, from the time in which the mass was measurable. The tumor mass was evaluated from the size of the two principal dimensions (length and breadth), expressed in mm, applying the formula (length×breadth^2)/2, that is, the tumor volume in mm3. For each experimental group, the percentage of tumor volume inhibition was calculated (TVI %), with respect to the control, namely (100−(T/C %). TVI was evaluated 2 days after the final administration of ST1926.
A comparison between the TVI values obtained for each group was performed using the non parametric Mann Whitney test for non-paired data, using the Instat software from GraphPad inc.

The mark [7] stands for this setting: bFGF 0.05 + compound 0.25 μg/embryo.

As to `O=C(O)/C=C/c1ccc(-c2ccc(O)c(C34CC5CC(CC(C5)C3)C4)c2)c(Cl)c1` [3-Cl-AHPC (5)], in data set [1], the “inhibition (%) at 0.5 μM” value was 60% and the IC50 was 300 nM.

Consider `O=C(O)c1ccc2c(Cl)c(-c3ccc(O)c(C45CC6CC(CC(C6)C4)C5)c3)ccc2c1` [5-Cl-AHPN (2)], for which the “inhibition (%) at 0.5 μM” value in data set [1] is on record as 45%.

`COc1ccc(-c2ccc(/C=C/CO)cc2)cc1C12CC3CC(CC(C3)C1)C2` [Example 7, E-4-(3-(1-adamantyl)-4-methoxyphenyl)cinnamyl alcohol] showed a melting point of 148 °C.

Take `COc1ccc(-c2ccc(/C=C/C(=O)O)cc2)cc1C12CC3CC(CC(C3)C1)C2` [ST1898, E-4-(3-(1-adamantyl)-4-methoxyphenyl)cinnamic acid]: the IC50 in data set [2] was determined as 380 ± 20 nM. Moreover, in data set [3] (setting [7]), the “Δvessels, change vs bFGF alone” value is on record as “(−71%)”; the “12th day (72 hours), number of vessels per sponge” value was determined as 10 ± 1 vessels per sponge; the Δvessels was 7 ± 1 vessels per sponge. For the same molecule, the IC50 in data set [4] stood at 1700 ± 200 nM. Also, the AC50 in the data set on NB4 cells was 19 nM. In data set [5], the IC50 is 8800 ± 600 nM.

As to `CC(=O)O[C@H]1C(=O)[C@@]2(C)[C@H]([C@H](OC(=O)c3ccccc3)[C@]3(O)C[C@H](OC(=O)[C@H](O)[C@@H](NC(=O)c4ccccc4)c4ccccc4)C(C)=C1C3(C)C)[C@]1(OC(C)=O)CO[C@@H]1C[C@@H]2O` [Taxol, reference compound], in data set [6], the “BWL % Max” value was determined as 4%, the Lethality is listed as 0/8 and the “TVI % ± SE” value is 0%.

Consider `CC1=C(/C=C/C(C)=C/C=C/C(C)=C/C(=O)O)C(C)(C)CCC1` [trans-RA (7), trans-Retinoic Acid], for which, in data set [1], the “inhibition (%) at 0.5 μM” value is 10% and the IC50 is greater than 500 nM.

For the molecule “bFGF: basic Fibroblast Growth Factor, inducer of vasoproliferation in the CAM model [reference compound]”, in data set [3] (bFGF 0.05 μg/embryo alone), the “12th day (72 hours), number of vessels per sponge” value is 28 ± 2 vessels per sponge and 19 ± 1 vessels per sponge and 22 ± 1 vessels per sponge; the Δvessels was 24 ± 1 vessels per sponge and 15 ± 1 vessels per sponge and 19 ± 1 vessels per sponge.

These data come from patent publication US7449495B2, “Retinoid derivatives with antiangiogenic, antitumoral and proapoptotic activities” (Sigma-Tau Industrie Farmaceutiche Riunite S.p.A., priority 2001, dated 2008).
